Experimental data reported in US11129820B2, “Ferroportin-inhibitor salts” (Vifor (International) AG, priority 2017, dated 2021).
Marks after values point to notes of the source that are not given here.

Assays:
anemic Wistar rats = assay: Prevention of iron absorption in anemic rats; type: in vivo, rat; settings: n=5
Method: To assess the in vivo efficacy of ferroportin (Fpn) inhibitors to block iron absorption, a series of Fpn inhibitors is tested in an anemic rat model for iron absorption. Wistar rats (3-4 weeks old, n=5, Janvier Labs) are fed a low iron diet (Provimi-Kliba, Cat. 2039) until their hemoglobin (Hb) values reach 7-8 g/dl one day before dosing of the Fpn inhibitor compounds. One hour before oral application of 0.5 mg/kg of ferrous sulfate, test compounds formulated in methyl cellulose or Cremophor are dosed orally. Blood samples are taken by tail vein puncture one hour before administration of iron (−1 h), immediately after dosing of the Fpn inhibitors (0 h) and one hour (1 h), three hours (3 h) and occasionally up to 6 hours (6 h) after dosing of the test compounds. Serum iron levels are measured (Abbott Diagnostics, Cat. 6K95) and inhibition of the rise of serum iron three hours after dosing of the test compound is calculated as a measure for efficacy of the Fpn inhibitors in blocking iron absorption (Table 7).

[1] = test system: beta2-microglobulin deficient (b2m−/−) mice; assay: Prevention of iron overload in beta2-microglobulin deficient mice; type: in vivo, mouse; settings: 14 days
Method: In addition, feeding 3 week old b2m−/− mice a diet with low iron content (LID) immediately after weaning prevents liver iron loading by age of 6-7 weeks. The efficacy of the Fpn inhibitors to prevent liver iron accumulation in b2m−/− mice is investigated. Three weeks old b2−/− mice fed LID are dosed with either Fpn inhibitor or vehicle (methylcellulose; 10 ml/kg). Mice have access to drinking water supplemented with 1 mM ^58Fe(II)-sulfate and 10 mM ascorbic acid. Dosing of Fpn inhibitor or vehicle followed by exposure to iron-containing water is repeated for 14 days. Mice are euthanized and the liver and spleen iron contents are analyzed by ICP-OES (all iron isotopes) and liver tissue is also analyzed for ^58Fe concentration (ICP-MS).
Livers and spleens are collected after 14 day treatment (p.o.; b.i.d) of beta2-microglobulin deficient mice with the indicated doses of Fpn inhibitors. Total liver and spleen tissue iron concentrations are measured using ICP-OES and ^58Fe liver concentrations are determined with ICP-MS. Relative changes (%) of tissue iron levels are calculated by normalizing the difference between the averages of tissue iron values of animals dosed with the Fpn inhibitors and those of vehicle-treated animals with the average of vehicle controls.

Hbb th3/+ mice = assay: Mouse model of β-thalassemia intermedia (Hbb th3/+ mice); type: in vivo; settings: for Decrease in ^58Fe spleen iron content by 20/60 mg/kg compound / Decrease in blood reticulocyte counts by 20/60 mg/kg compound / Decrease in leukocyte counts by 20/60 mg/kg compound / Increase in blood erythrocyte counts by 20/60 mg/kg compound / Increase in hematocrit by 20/60 mg/kg compound / Prevention of liver ^58Fe loading by 20/60 mg/kg / Decrease in serum iron by 20/60 mg/kg compound / Decrease in RDW by 20/60 mg/kg compound / Decrease in serum erythropoietin by 20/60 mg/kg compound / Decreased in ROS in bone marrow erythrocytes / Decrease in relative spleen weight by 20/60 mg/kg: % change to vehicle; for Correction of anemia at day 20-48 by 20/60 mg/kg: hemoglobin difference to vehicle; for Decrease in serum iron by 20/60 mg/kg compound: dosed for 3 h
Method: The efficacy of Fpn inhibitors is investigated using a mouse model of transfusion-independent β-thalassemia. Mice with heterozygous deletion of β 1 and β 2 globin genes (called Hbb th3/+ mice) develop transfusion-independent anemia, ineffective erythropoiesis, splenomegaly and secondary iron overload in spleen, liver and kidneys. […] Hbb th3/+ mice are dosed twice daily with either compound at 20 or 60 mg/kg or with methylcellulose (10 ml/kg, Sigma, Cat. 274429) as a vehicle. Between both doses mice have access to drinking water supplemented with 1 mM ^58Fe(II)-sulfate (Vifor Pharma, Batch No. ROR 3096) and 10 mM ascorbic acid (Sigma, Cat. 795437) for 6 h. The concentration of ^58Fe(II)-Sulfate supplied in the drinking water is adjusted to substitute for intake of standard rodent diet with iron content of 250 ppm. Water without ^58Fe(II)-Sulfate and ascorbic acid is provided during the remaining 18 h. Dosing of Fpn inhibitors or vehicle followed by exposure to iron-containing water is repeated for 20 to 46 days in individual experiments.
Additional hematologic parameters are measured in terminal blood using automated blood cell analyzer.
The inefficient erythropoiesis of Hbb th3/+ mice causes excessive proliferation of erythroid precursors in spleen, leading to splenomegaly.
Elevated erythropoietin levels in Hbb th3/+ mice induce overexpression of erythroferrone, an erythroid regulator hormone known to suppress hepcidin (Kautz L. et al, Nat. Genet., 2014). […] Erythroferrone is produced by erythrocyte precursors proliferating massively in spleens of Hbb th3/+ mice as a consequence of extramedullar erythropoiesis.
Increased iron demand due to inefficient erythropoiesis and chronically low hepcidin levels in patients with thalassemia causes organ iron loading and associated morbidities, such as hepatocellular carcinoma and heart failure (Rivella S. Haematologica, 2015). Hbb th3/+ mice absorb excessive amounts of iron as a consequence of inadequately low hepcidin levels relative to the high iron content in liver, spleen and kidney and increased ferroportin expression in duodenum (Gardenghi S., Blood, 2007).
Additionally, reactive oxygen species (ROS) are detected in bone marrow cells using a fluorescent indicator, CM-H2DCFDA (Thermo Fisher Scientific, Cat. C6827).
Data are expressed as difference to the vehicle control group for hemoglobin and as % change to the vehicle control group for all other parameter shown

[2] = 20 mg/kg twice daily for 20-46 days
[3] = 60 mg/kg twice daily for 20-46 days
[4] = first value of the pair (20 mg/kg; dose not printed in this line)
[5] = second value of the pair (60 mg/kg; dose not printed in this line)

Structure (SMILES)	Serum Iron Inhibition (%) at 3 h (anemic Wistar rats; Dose 10 mg/kg oral)	Serum Iron Inhibition (%) at 3 h (anemic Wistar rats; Dose 30 mg/kg oral)	Total Liver Iron Reduction (%) ([1]; female ♀, 20 mg/kg p.o. b.i.d.)	Total Spleen Iron Increase (%) ([1]; female ♀, 20 mg/kg p.o. b.i.d.)	^58Fe Liver Iron Reduction (%) ([1]; female ♀, 20 mg/kg p.o. b.i.d.)	Total Liver Iron Reduction (%) ([1]; male ♂, 20 mg/kg p.o. b.i.d.)	^58Fe Liver Iron Reduction (%) ([1]; male ♂, 20 mg/kg p.o. b.i.d.)	Decrease in ^58Fe spleen iron content by 20/60 mg/kg compound (Hbb th3/+ mice; [2]) [%]	Decrease in blood reticulocyte counts by 20/60 mg/kg compound (Hbb th3/+ mice; [2]) [%]	Decrease in leukocyte counts by 20/60 mg/kg compound (Hbb th3/+ mice; [2]) [%]	Increase in blood erythrocyte counts by 20/60 mg/kg compound (Hbb th3/+ mice; [2]) [%]	Increase in hematocrit by 20/60 mg/kg compound (Hbb th3/+ mice; [2]) [%]	Prevention of liver ^58Fe loading by 20/60 mg/kg (Hbb th3/+ mice; [2]) [%]	Correction of anemia at day 20-48 by 20/60 mg/kg (Hbb th3/+ mice; 20 mg/kg twice daily) [g/L]	Decrease in serum iron by 20/60 mg/kg compound (Hbb th3/+ mice; 20 mg/kg) [%]	Decrease in ^58Fe spleen iron content by 20/60 mg/kg compound (Hbb th3/+ mice; [3]) [%]	Decrease in blood reticulocyte counts by 20/60 mg/kg compound (Hbb th3/+ mice; [3]) [%]	Increase in blood erythrocyte counts by 20/60 mg/kg compound (Hbb th3/+ mice; [3]) [%]	Increase in hematocrit by 20/60 mg/kg compound (Hbb th3/+ mice; [3]) [%]	Prevention of liver ^58Fe loading by 20/60 mg/kg (Hbb th3/+ mice; [3]) [%]	other results
O=C(NCc1ncccc1F)c1csc(CCNCc2nc3ccccc3[nH]2)n1 [Example Compound No. 40]	32** %	53*** %	32	50* %	44%	31	53* %	19	19	0	2	0	20	6	28	51	43	22	1	48	Serum Iron Inhibition (%) at 3 h (anemic Wistar rats; Dose 100 mg/kg oral): 97*** %; Correction of anemia at day 20-48 by 20/60 mg/kg (Hbb th3/+ mice; 60 mg/kg twice daily): 13 g/L; Decrease in serum iron by 20/60 mg/kg compound (Hbb th3/+ mice; 60 mg/kg): 58%
O=C(NCc1ncccc1F)c1cnc(CCNCCc2nc3ccccc3[nH]2)o1 [Example Compound No. 1]	42.6** %	64.9*** %	−1	21%	4%	16	−8%	14	8	32	4	0	12	6	49	48	39	8	4	40	Serum Iron Inhibition (%) at 3 h (anemic Wistar rats; Dose 3 mg/kg oral): 2.1%; Total Liver Iron Reduction (%) ([1]; female ♀, 60 mg/kg p.o. b.i.d.): 15%; Total Spleen Iron Increase (%) ([1]; female ♀, 60 mg/kg p.o. b.i.d.): 65%; ^58Fe Liver Iron Reduction (%) ([1]; female ♀, 60 mg/kg p.o. b.i.d.): 59%; Total Spleen Iron Increase (%) ([1]; male ♂, 20 mg/kg p.o. b.i.d.): 28%; Total Liver Iron Reduction (%) ([1]; male ♂, 60 mg/kg p.o. b.i.d.): 25%; Total Spleen Iron Increase (%) ([1]; male ♂, 60 mg/kg p.o. b.i.d.): 49%; ^58Fe Liver Iron Reduction (%) ([1]; male ♂, 60 mg/kg p.o. b.i.d.): 22%; Decrease in RDW by 20/60 mg/kg compound (Hbb th3/+ mice; [2]): 3%; Decrease in serum erythropoietin by 20/60 mg/kg compound (Hbb th3/+ mice; [2]): 64%; Decrease in RDW by 20/60 mg/kg compound (Hbb th3/+ mice; [3]): 16%; Decrease in leukocyte counts by 20/60 mg/kg compound (Hbb th3/+ mice; [3]): 44%; Decrease in serum erythropoietin by 20/60 mg/kg compound (Hbb th3/+ mice; [3]): 78%; Correction of anemia at day 20-48 by 20/60 mg/kg (Hbb th3/+ mice; 60 mg/kg twice daily): 20 g/L; Decrease in serum iron by 20/60 mg/kg compound (Hbb th3/+ mice; 60 mg/kg): 66%; Decreased in ROS in bone marrow erythrocytes (Hbb th3/+ mice; [4]): 20%; Decreased in ROS in bone marrow erythrocytes (Hbb th3/+ mice; [5]): 45%
O=C(NCc1ncccc1F)c1cnc(C2CN(CCc3nc4ccccc4[nH]3)C2)o1 [Example Compound No. 2]	29** %	57*** %	26	13%	60** %	10	24%	13	0	29	0	0	14	3	50	40	11	33	15	47	Serum Iron Inhibition (%) at 3 h (anemic Wistar rats; Dose 3 mg/kg oral): −3%; Total Liver Iron Reduction (%) ([1]; female ♀, 60 mg/kg p.o. b.i.d.): 45%; Total Spleen Iron Increase (%) ([1]; female ♀, 60 mg/kg p.o. b.i.d.): 1%; ^58Fe Liver Iron Reduction (%) ([1]; female ♀, 60 mg/kg p.o. b.i.d.): 77*** %; Total Spleen Iron Increase (%) ([1]; male ♂, 20 mg/kg p.o. b.i.d.): 18%; Total Liver Iron Reduction (%) ([1]; male ♂, 60 mg/kg p.o. b.i.d.): 28%; Total Spleen Iron Increase (%) ([1]; male ♂, 60 mg/kg p.o. b.i.d.): −20%; ^58Fe Liver Iron Reduction (%) ([1]; male ♂, 60 mg/kg p.o. b.i.d.): 70%; Decrease in RDW by 20/60 mg/kg compound (Hbb th3/+ mice; [2]): 0%; Decrease in relative spleen weight by 20/60 mg/kg (Hbb th3/+ mice; [2]): 16%; Decrease in serum erythropoietin by 20/60 mg/kg compound (Hbb th3/+ mice; [2]): 4%; Decrease in RDW by 20/60 mg/kg compound (Hbb th3/+ mice; [3]): 15%; Decrease in leukocyte counts by 20/60 mg/kg compound (Hbb th3/+ mice; [3]): 55%; Decrease in relative spleen weight by 20/60 mg/kg (Hbb th3/+ mice; [3]): 47%; Decrease in serum erythropoietin by 20/60 mg/kg compound (Hbb th3/+ mice; [3]): 27%; Correction of anemia at day 20-48 by 20/60 mg/kg (Hbb th3/+ mice; 60 mg/kg twice daily): 11 g/L; Decrease in serum iron by 20/60 mg/kg compound (Hbb th3/+ mice; 60 mg/kg): 69%; Decreased in ROS in bone marrow erythrocytes (Hbb th3/+ mice; [4]): 13%; Decreased in ROS in bone marrow erythrocytes (Hbb th3/+ mice; [5]): 65%
